From ChEMBL document CHEMBL3507680, “University of Dundee, Gates Library screen for HepG2 cell viability”

Assay: Human HepG2 cell viability assay in 384 well format
Type: toxicity, cell-based
Design: dose 125 nL, time 70.5 hour; concentration not given beside the values
Conditions: HepG2 cells, read-out: Inhibition

Row | Compound | cytotoxicity at 70.5 h
1 | CC(NC(=O)NCCN1CCCCCC1=O)c1ccc(Cl)s1 (stereo unspecified) | -10.6%
2 | CCc1nc(CN2CCCN(C(=O)CCc3ccco3)CC2)cs1 | 27.3%
3 | CC(=O)Nc1nc(C(=O)NC(C)c2cccnc2)cs1 (stereo unspecified) | -6.5%
4 | Cc1ccc(-n2ccnc2)c(C(=O)NCCOCC(F)(F)F)c1 | -8.14%
5 | O=C1CCC(=O)N1CCN1CCOC(c2ccsc2)C1 (stereo unspecified) | 3.03%
6 | Cc1cc(CN2CCCC(CNC(=O)Cn3cccn3)C2)oc1C (stereo unspecified) | -6.83%
7 | O=C(NCCOc1ccc2c(c1)OCO2)C1CC(=O)N(C2CC2)C1 (stereo unspecified) | 3.82%
8 | COCCCNC(=O)c1c(-n2cnnn2)sc2c1CCC2 | -3.39%
9 | Cc1cc(CN2CCN(C(=O)C3(C#N)CCCCC3)CC2)on1 | -4.13%
10 | CC(C)(O)CN1CCN(C(=O)c2sccc2C#N)CC1 | -3.64%
11 | CCN(CC1CCOC1)C(=O)NCc1ccc(-n2cncn2)nc1 (stereo unspecified) | -1.6%
12 | Cc1ccc(CN2CCC3(CC2)C(c2ccccc2)CC(=O)N3C)o1 (stereo unspecified) | 0.715%
13 | COCC(=O)N1Cc2cnc(Cc3ccc(OC)cc3)nc2C1 | 1.24%
14 | CCOc1ccc(C(=O)N2CCCC(c3nccn3C)C2)cc1OCC (stereo unspecified) | -5.34%
15 | O=C(C1CC1)N1C[C@H]2CNC[C@@]2(C(=O)NCCCc2ccccc2)C1 | -1.55%
16 | CCN(CC)C(=O)c1ccc(Cl)c(NC(=O)c2cc(C(C)C)on2)c1 | -12.4%
17 | O=C(CC1CC1)N1CC[C@@H]2[C@H](CC1)N(Cc1cccnc1)CCS2(=O)=O | 5.01%
18 | NCc1csc(CCc2ccccc2)n1 | -8.04%
19 | Cc1cc(C(=O)NC(C)Cc2ccc(N(C)C)cc2)n(C)n1 (stereo unspecified) | -1.34%
20 | COc1ccc(NC(=O)c2cccc(CN3CCCC3C)c2)cc1OC (stereo unspecified) | -2.34%
21 | COc1cccc(CC(=O)NC2CCCc3cn[nH]c32)c1 (stereo unspecified) | -0.729%

Row | Compound | cytotoxicity at 70.5 h
22 | Cc1cc(CN2CCN(C(C)C)C(CCO)C2)[nH]n1 (stereo unspecified) | 9.92%
23 | COc1cccc(CCNC(=O)CN2CCN(C)CC2C)c1 (stereo unspecified) | -17.1%
24 | c1ccc(C(CNc2ncccn2)N2CCOCC2)nc1 (stereo unspecified) | -1.54%
25 | CCOC(=O)Cn1c(=O)nc2n1C(=O)N(c1ccccc1)C2 | 8.85%
26 | O=C1OCCN1CC(=O)N1C[C@H]2CC[C@@H]1CN(C(=O)c1ccccn1)C2 | -7.06%
27 | Cc1nnc2n1CCN(CC(=O)NC(C)c1cccc3ccccc13)C2 (stereo unspecified) | 2.87%
28 | CCc1nc(CN(C(C)=O)C2CCN(CCc3ccncc3)C2)no1 (stereo unspecified) | 11.6%
29 | CC(CS(C)(=O)=O)N(C(=O)Nc1ccc(F)cc1F)C1CC1 (stereo unspecified) | -1.48%
30 | Cc1ccc(CNC(CN2CCN(C)CC2)c2ccccc2)cc1C (stereo unspecified) | 35.8%
31 | Cc1cnn(C2CCCN(C(=O)c3ccc(-n4cccn4)nc3)C2)c1 (stereo unspecified) | -11.3%
32 | CC(C)C(NC(=O)C1CC1)c1cc(O)nc(-c2cccnc2)n1 (stereo unspecified) | -0.322%
33 | O=C(c1ccco1)N1CCC2(CCC(=O)N2Cc2ccccc2)CC1 | -11.1%
34 | COCC1CC2(CCN(Cc3ccccn3)CC2)CN1C(C)C (stereo unspecified) | -7.51%
35 | Cc1ccc(N2CCC3(CCN(C(=O)c4ccsc4)CC3)CC2)nn1 | -7.09%
36 | Cc1csc(N2CCN(Cc3nccn3C)CC2C)n1 (stereo unspecified) | -16.3%
37 | CCn1ccnc1CN1CCCN(C(=O)c2cnc(C)cn2)CC1 | -5.42%
38 | CSc1ccccc1C(=O)Nc1ccc(OC2CCN(C)CC2)cc1 | 17.4%
39 | O=C(CN1CCN(c2ccccc2F)CC1)Nc1ccc(Cl)cn1 | 11.6%
40 | CC(=O)N1CCC2(CC1)c1ncc(-c3ccccc3)n1CCN2C | -9.38%
41 | CN(Cc1ccn[nH]1)C(=O)CCC(=O)NC1CCCC1 | -9.97%
42 | Cc1nnsc1C(=O)N1CCC(c2nc3ccccc3[nH]2)CC1 | 24%

Row | Compound | cytotoxicity at 70.5 h
43 | CS(=O)(=O)c1cncnc1C1CCCNC1 (stereo unspecified) | -8.78%
44 | CN(C)c1cc(C(=O)NCCc2n[nH]c(=O)[nH]2)ccn1 | -5.07%
45 | Cc1nccc(CN2CCC(c3nnsc3S(C)(=O)=O)CC2)n1 | -21.3%
46 | CC(C)c1noc(CCNC(=O)N2CCC(O)(C(F)(F)F)C2)n1 (stereo unspecified) | -14.8%
47 | CCC(CC)CS(=O)(=O)NC(=O)C1CCCC1 | 26.6%
48 | O=C(c1ccoc1)N1CCC(O)(C(F)(F)F)CC1 | -12.1%
49 | CCc1nc(CN2CCCC(N(C)Cc3cnc(C)cn3)C2)no1 (stereo unspecified) | -71.2%
50 | COC(=O)CC1CN(Cc2ccn(-c3ccc(F)cc3)n2)CCO1 (stereo unspecified) | -8.65%
51 | CSC(C)C(=O)NS(=O)(=O)c1ccc(F)c(C(F)(F)F)c1 (stereo unspecified) | 22.2%
52 | COCc1noc(-c2cc(Cl)c3c(c2)OCCCO3)n1 | -8.58%
53 | O=C(COc1coc(CN2CCCC2)cc1=O)NCc1ccccc1Cl | 3.62%
54 | CSCCC(O)C(=O)N1CCN(Cc2cccc(Cl)c2)CC1 (stereo unspecified) | -12.9%
55 | CCNC(=O)NCC(CC)(OC)c1ccccc1 (stereo unspecified) | -5.55%
56 | O=C1[C@@H]2CN(c3ncnc4sccc34)C[C@]2(C(=O)O)CN1CC1CC1 | -11.3%
57 | CC(C)C1CN(C(=O)c2ccn(C)c(=O)c2)c2ccccc2N1 (stereo unspecified) | -0.488%
58 | Cc1cccc(CN2CCc3c(nc(N4CCCCC4C)[nH]c3=O)C2)n1 (stereo unspecified) | -4.07%
59 | N#Cc1ccc(-c2nnc(CSCCN3CCOCC3)o2)cc1 | -5.77%
60 | CCn1ccnc1CNC1CC(=O)N(CCc2cccc(Cl)c2)C1 (stereo unspecified) | -2.81%
61 | CC(C)NC(=O)[C@@H]1C[C@H](N)CN1C(=O)C1(c2ccc(Cl)cc2)CCC1 | -9.78%
62 | COCC(=O)N1CC[C@H]2C[C@@H](c3nnc(C4CC4)o3)O[C@@H]2C1 | 5.55%
63 | CC(C)CC(NC(=O)c1cccs1)c1nc2cccnc2n1C (stereo unspecified) | -5.14%

Row | Compound | cytotoxicity at 70.5 h
64 | CC(C)Cc1nc(CSC2CCCN(c3cnn(C)c3)C2=O)no1 (stereo unspecified) | -1.14%
65 | COc1ccc(OC)c2c(C)cc(N(C)CCO)nc12 | 16.9%
66 | Cc1nc(C)n(C2CCCN(C(=O)c3cn4c(C)cccc4n3)C2)n1 (stereo unspecified) | 19.8%
67 | Cc1nc[nH]c1CN(Cc1ccccc1F)C1CC(C)(C)NC(C)(C)C1 | -2.5%
68 | COc1cccc(CC2CCCN2CC(N)=O)c1 (stereo unspecified) | -8.71%
69 | CC(=O)NC(C(=O)N1CCn2cncc2C1)C(C)C (stereo unspecified) | -2.16%
70 | O=C1[C@H]2CN(Cc3nccs3)C[C@H]2CN1c1cncnc1 | -8.02%
71 | O=C(c1ccncc1)N1CCN2C[C@H](Oc3cccc(F)c3)C[C@H]2C1 | -0.421%
72 | COCC(=O)N1CCC(c2cc3nc(C)cc(C(F)(F)F)n3n2)CC1 | 25.3%
73 | COCCS(=O)(=O)N(Cc1ccsc1)c1ccccc1 | 2.67%
74 | c1coc(CN2C[C@@H]3OCCN(CCN4CCCC4)[C@@H]3C2)c1 | -7.43%
75 | CC(c1cccnc1)N1CCN(C(=O)NCc2cnn(C)c2)CC1 (stereo unspecified) | -1.81%
76 | CCNC(=O)N1CCc2ccc(NC(=O)NCCOCC)cc21 | 1.97%
77 | COCCNC(=O)c1cccnc1Sc1cc(OC)ccc1OC | 11.2%
78 | Cc1occc1C(=O)N1CCC2(CCC(C(=O)NCC3CC3)O2)CC1 (stereo unspecified) | -12.7%
79 | NC(=O)C1CN(c2ccc(Br)cn2)CCO1 (stereo unspecified) | -26.8%
80 | CCNC(=O)NC(=O)CN1CCCC1c1nc(C2CCCCC2)co1 (stereo unspecified) | -7.64%
81 | Cc1nc(N(C)C)nc(C)c1NS(=O)(=O)c1ccc(F)cc1F | -2.45%
